{"source": "ChEMBL document CHEMBL1157528", "about": "“Mixed tetraoxanes containing the acetone subunit as antimalarials” (Bioorg Med Chem, 2008)", "key": {"Plasmodium berghei [1]": {"system": "Plasmodium berghei", "assay": "Antimalarial activity as reduced parasitaemia after 10 days against Plasmodium berghei KBG173 infected CD1 mice (Mus musculus) at 20 mg/kg/day subcutaneous dose", "type": "functional", "design": "scale not given: the % may be the effect or the level left"}, "[2]": {"assay": "Metabolic stability in mouse liver microsomes assessed as half life at 10 uM", "type": "ADME, Microsome"}, "Plasmodium falciparum [3]": {"system": "Plasmodium falciparum", "assay": "microbe, parasite or virus in culture", "details": "D6", "description": "Antimalarial activity against chloroquine and pyrimethamine-sensitive Plasmodium falciparum D6"}, "Plasmodium berghei [4]": {"system": "Plasmodium berghei", "assay": "Antimalarial activity as survival time against Plasmodium berghei KBG173 infected CD1 mice (Mus musculus) at 160 mg/kg/day subcutaneous dose", "type": "functional"}, "Plasmodium berghei [5]": {"system": "Plasmodium berghei", "assay": "Antimalarial activity against Plasmodium berghei KBG173 infected CD1 mice (Mus musculus) assessed as survival time at 80 mg/kg/day, subcutaneously administered on day 3 twice a day", "type": "functional", "details": "route subcutaneous"}, "Plasmodium berghei [6]": {"system": "Plasmodium berghei", "assay": "Antimalarial activity as reduced parasitaemia after 17 days against Plasmodium berghei KBG173 infected CD1 mice (Mus musculus) at 40 mg/kg/day subcutaneous dose", "type": "functional", "design": "scale not given: the % may be the effect or the level left"}, "Plasmodium berghei [7]": {"system": "Plasmodium berghei", "assay": "Antimalarial activity as parasite-free survivors at day 31 of Plasmodium berghei KBG173 infected CD1 mice (Mus musculus) at 20 mg/kg/day subcutaneous dose", "type": "functional, organism-based"}, "Plasmodium berghei [8]": {"system": "Plasmodium berghei", "assay": "Antimalarial activity as reduced parasitaemia after 10 days against Plasmodium berghei KBG173 infected CD1 mice (Mus musculus) at 40 mg/kg/day subcutaneous dose", "type": "functional", "design": "scale not given: the % may be the effect or the level left"}, "Plasmodium berghei [9]": {"system": "Plasmodium berghei", "assay": "Antimalarial activity as survival time in Plasmodium berghei KBG173 infected CD1 mice (Mus musculus) at 20 mg/kg/day peroral dose", "type": "functional", "details": "route oral"}, "Plasmodium berghei [10]": {"system": "Plasmodium berghei", "assay": "Antimalarial activity as survival time against Plasmodium berghei KBG173 infected CD1 mice (Mus musculus) at 80 mg/kg/day subcutaneous dose", "type": "functional"}, "Plasmodium berghei [11]": {"system": "Plasmodium berghei", "assay": "Antimalarial activity as reduced parasitaemia at day 6 in Plasmodium berghei KBG173 infected CD1 mice (Mus musculus) at 20 mg/kg/day subcutaneous dose", "type": "functional", "design": "scale not given: the % may be the effect or the level left"}, "Plasmodium berghei [12]": {"system": "Plasmodium berghei", "assay": "Antimalarial activity as reduced parasitaemia after 24 days against Plasmodium berghei KBG173 infected CD1 mice (Mus musculus) at 320 mg/kg/day peroral dose", "type": "functional", "design": "scale not given: the % may be the effect or the level left", "details": "route oral"}, "Plasmodium falciparum [13]": {"system": "Plasmodium falciparum", "assay": "Relative activity against Plasmodium falciparum W2 as ratio of IC90 to IC50", "type": "functional"}, "Plasmodium berghei [14]": {"system": "Plasmodium berghei", "assay": "Antimalarial activity as reduced parasitaemia after 27 days against Plasmodium berghei KBG173 infected CD1 mice (Mus musculus) at 40 mg/kg/day subcutaneous dose", "type": "functional", "design": "scale not given: the % may be the effect or the level left"}, "Plasmodium berghei [15]": {"system": "Plasmodium berghei", "assay": "Antimalarial activity as survival time against Plasmodium berghei KBG173 infected CD1 mice (Mus musculus) at 80 mg/kg/day peroral dose 3 - 5 days post infection", "type": "functional", "details": "route oral"}, "[16]": {"assay": "Metabolic stability in human liver microsomes assessed as half life at 10 uM", "type": "ADME, Microsome"}, "Plasmodium berghei [17]": {"system": "Plasmodium berghei", "assay": "Antimalarial activity as reduced parasitaemia after 17 days against Plasmodium berghei KBG173 infected CD1 mice (Mus musculus) at 20 mg/kg/day subcutaneous dose", "type": "functional", "design": "scale not given: the % may be the effect or the level left"}, "Plasmodium berghei [18]": {"system": "Plasmodium berghei", "assay": "Antimalarial activity as parasite-free survivors at day 31 of Plasmodium berghei KBG173 infected CD1 mice (Mus musculus) at 20 mg/kg/day peroral dose", "type": "functional, organism-based"}, "Plasmodium berghei [19]": {"system": "Plasmodium berghei", "assay": "Antimalarial activity as reduced parasitaemia after 31 days against Plasmodium berghei KBG173 infected CD1 mice (Mus musculus) at 40 mg/kg/day subcutaneous dose", "type": "functional", "design": "scale not given: the % may be the effect or the level left"}, "Plasmodium berghei [20]": {"system": "Plasmodium berghei", "assay": "Antimalarial activity as reduced parasitaemia after 31 days against Plasmodium berghei KBG173 infected CD1 mice (Mus musculus) at 320 mg/kg/day peroral dose", "type": "functional", "design": "scale not given: the % may be the effect or the level left", "details": "route oral"}, "Plasmodium berghei [21]": {"system": "Plasmodium berghei", "assay": "Antimalarial activity as reduced parasitaemia after 13 days against Plasmodium berghei KBG173 infected CD1 mice (Mus musculus) at 40 mg/kg/day subcutaneous dose", "type": "functional", "design": "scale not given: the % may be the effect or the level left"}, "Plasmodium berghei [22]": {"system": "Plasmodium berghei", "assay": "Antimalarial activity as reduced parasitaemia at day 17 against Plasmodium berghei KBG173 infected CD1 mice (Mus musculus) at 320 mg/kg/day peroral dose", "type": "functional", "design": "scale not given: the % may be the effect or the level left", "details": "route oral"}, "Plasmodium falciparum [23]": {"system": "Plasmodium falciparum", "assay": "microbe, parasite or virus in culture", "details": "TM91C235", "description": "Antimalarial activity against mefloquine, chloroquine and quinine-resistant Plasmodium falciparum TM91C235"}, "Plasmodium berghei [24]": {"system": "Plasmodium berghei", "assay": "Antimalarial activity as reduced parasitaemia after 24 days against Plasmodium berghei KBG173 infected CD1 mice (Mus musculus) at 40 mg/kg/day subcutaneous dose", "type": "functional", "design": "scale not given: the % may be the effect or the level left"}, "Plasmodium berghei [25]": {"system": "Plasmodium berghei", "assay": "Antimalarial activity as reduced parasitaemia after 27 days against Plasmodium berghei KBG173 infected CD1 mice (Mus musculus) at 320 mg/kg/day peroral dose", "type": "functional", "design": "scale not given: the % may be the effect or the level left", "details": "route oral"}, "[26]": {"assay": "Cytotoxicity against human NCI60 cells", "type": "functional"}, "Plasmodium berghei [27]": {"system": "Plasmodium berghei", "assay": "Antimalarial activity as survival time in Plasmodium berghei KBG173 infected CD1 mice (Mus musculus) at 320 mg/kg/day peroral dose", "type": "functional", "details": "route oral"}, "Plasmodium falciparum [28]": {"system": "Plasmodium falciparum", "assay": "microbe, parasite or virus in culture", "details": "W2", "description": "Antimalarial activity against chloroquine and pyrimethamine-resistant Plasmodium falciparum W2"}, "Plasmodium berghei [29]": {"system": "Plasmodium berghei", "assay": "Antimalarial activity as reduced parasitaemia at day 20 against Plasmodium berghei KBG173 infected CD1 mice (Mus musculus) at 320 mg/kg/day peroral dose", "type": "functional", "design": "scale not given: the % may be the effect or the level left", "details": "route oral"}, "Plasmodium berghei [30]": {"system": "Plasmodium berghei", "assay": "Antimalarial activity as reduced parasitaemia after 13 days against Plasmodium berghei KBG173 infected CD1 mice (Mus musculus) at 20 mg/kg/day subcutaneous dose", "type": "functional", "design": "scale not given: the % may be the effect or the level left"}, "Plasmodium berghei [31]": {"system": "Plasmodium berghei", "assay": "Antimalarial activity as reduced parasitaemia after 20 days against Plasmodium berghei KBG173 infected CD1 mice (Mus musculus) at 40 mg/kg/day subcutaneous dose", "type": "functional", "design": "scale not given: the % may be the effect or the level left"}, "Plasmodium berghei [32]": {"system": "Plasmodium berghei", "assay": "Antimalarial activity as parasite-free survivors at day 31 of Plasmodium berghei KBG173 infected CD1 mice (Mus musculus) at 160 mg/kg/day subcutaneous dose", "type": "functional, organism-based"}}, "note": "pIC50: −log10 of the molar value. Calls of active or inactive are those of the source. The rule behind the calls is not given here.", "data": [{"smiles": "CC(=O)O[C@H]1C[C@H]2[C@@H]([C@H](OC(C)=O)C[C@@H]3CC4(CC[C@@]32C)OOC(C)(C)OO4)[C@@H]2CC[C@H]([C@H](C)CCC(=O)NCCN(C)C)[C@@]12C", "values": [{"measurement": "Activity", "setting": "Plasmodium berghei [1]", "result": 0.032, "unit": "%"}, {"measurement": "half-life at 10 µM", "setting": "[2]", "result": "> 1", "unit": "h"}, {"measurement": "pIC50", "setting": "Plasmodium falciparum [3]", "result": 7.94}, {"measurement": "IC90", "setting": "Plasmodium falciparum [3]", "result": 26.2, "unit": "nM"}, {"measurement": "Survival", "setting": "Plasmodium berghei [4]", "result": 31, "unit": "days"}, {"measurement": "Survival", "setting": "Plasmodium berghei [5]", "result": 16, "unit": "days"}, {"measurement": "Activity", "setting": "Plasmodium berghei [6]", "result": 15.48, "unit": "%"}, {"measurement": "Activity", "setting": "Plasmodium berghei [7]", "result": "inactive"}, {"measurement": "Activity", "setting": "Plasmodium berghei [8]", "result": 0, "unit": "%"}, {"measurement": "Survival", "setting": "Plasmodium berghei [9]", "result": 8, "unit": "days"}, {"measurement": "Survival", "setting": "Plasmodium berghei [10]", "result": 25, "unit": "days"}, {"measurement": "Activity", "setting": "Plasmodium berghei [11]", "result": 0.002, "unit": "%"}, {"measurement": "Activity", "setting": "Plasmodium berghei [12]", "result": 1.4, "unit": "%"}, {"measurement": "Ratio", "setting": "Plasmodium falciparum [13]", "result": 1.71}, {"measurement": "Activity", "setting": "Plasmodium berghei [14]", "result": 0, "unit": "%"}, {"measurement": "Survival", "setting": "Plasmodium berghei [15]", "result": 14, "unit": "days"}, {"measurement": "half-life at 10 µM", "setting": "[16]", "result": "> 1", "unit": "h"}, {"measurement": "Activity", "setting": "Plasmodium berghei [17]", "result": 26.8, "unit": "%"}, {"measurement": "Activity", "setting": "Plasmodium berghei [18]", "result": "inactive"}, {"measurement": "Activity", "setting": "Plasmodium berghei [19]", "result": 0, "unit": "%"}, {"measurement": "Activity", "setting": "Plasmodium berghei [20]", "result": 0, "unit": "%"}, {"measurement": "Activity", "setting": "Plasmodium berghei [21]", "result": 0.004, "unit": "%"}, {"measurement": "Activity", "setting": "Plasmodium berghei [22]", "result": 2.36, "unit": "%"}, {"measurement": "pIC50", "setting": "Plasmodium falciparum [23]", "result": 8.15}, {"measurement": "IC90", "setting": "Plasmodium falciparum [23]", "result": 19.8, "unit": "nM"}, {"measurement": "Activity", "setting": "Plasmodium berghei [24]", "result": 12.53, "unit": "%"}, {"measurement": "Activity", "setting": "Plasmodium berghei [25]", "result": 0, "unit": "%"}, {"measurement": "GI50", "setting": "[26]", "result": 3390, "unit": "nM"}, {"measurement": "LC50", "setting": "[26]", "result": 22400, "unit": "nM"}, {"measurement": "TGI", "setting": "[26]", "result": 10200, "unit": "nM"}, {"measurement": "Survival", "setting": "Plasmodium berghei [27]", "result": 29, "unit": "days"}, {"measurement": "pIC50", "setting": "Plasmodium falciparum [28]", "result": 8.01}, {"measurement": "IC90", "setting": "Plasmodium falciparum [28]", "result": 16.8, "unit": "nM"}, {"measurement": "Activity", "setting": "Plasmodium berghei [29]", "result": 1.9, "unit": "%"}, {"measurement": "Activity", "setting": "Plasmodium berghei [30]", "result": 8.72, "unit": "%"}, {"measurement": "Activity", "setting": "Plasmodium berghei [31]", "result": 3.9, "unit": "%"}, {"measurement": "Activity", "setting": "Plasmodium berghei [32]", "result": "Active"}]}, {"smiles": "COC(=O)CNC(=O)CC[C@@H](C)[C@H]1CC[C@H]2[C@@H]3[C@H](OC(C)=O)C[C@@H]4CC5(CC[C@]4(C)[C@H]3C[C@H](OC(C)=O)[C@]12C)OOC(C)(C)OO5", "values": [{"measurement": "half-life at 10 µM", "setting": "[2]", "result": 0.533, "unit": "h"}, {"measurement": "pIC50", "setting": "Plasmodium falciparum [3]", "result": 7.85}, {"measurement": "half-life at 10 µM", "setting": "[16]", "result": 1.17, "unit": "h"}, {"measurement": "GI50", "setting": "[26]", "result": 8510, "unit": "nM"}, {"measurement": "LC50", "setting": "[26]", "result": 77600, "unit": "nM"}, {"measurement": "TGI", "setting": "[26]", "result": 33900, "unit": "nM"}, {"measurement": "pIC50", "setting": "Plasmodium falciparum [28]", "result": 8.22}]}, {"smiles": "CC(=O)O[C@H]1C[C@H]2[C@@H]([C@H](OC(C)=O)C[C@@H]3CC4(CC[C@@]32C)OOC(C)(C)OO4)[C@@H]2CC[C@H]([C@H](C)CCC(N)=O)[C@@]12C", "values": [{"measurement": "half-life at 10 µM", "setting": "[2]", "result": "> 1", "unit": "h"}, {"measurement": "pIC50", "setting": "Plasmodium falciparum [3]", "result": 7.91}, {"measurement": "half-life at 10 µM", "setting": "[16]", "result": "> 1", "unit": "h"}, {"measurement": "GI50", "setting": "[26]", "result": 8710, "unit": "nM"}, {"measurement": "LC50", "setting": "[26]", "result": 79400, "unit": "nM"}, {"measurement": "TGI", "setting": "[26]", "result": 34700, "unit": "nM"}, {"measurement": "pIC50", "setting": "Plasmodium falciparum [28]", "result": 8.03}]}]}
